The source of these data is US20260021078A1, “COMPOSITIONS AND METHODS FOR THE TREATMENT OR PREVENTION OF PULMONARY HYPERTENSION” (VIVUS LLC, priority 2015, published 2026).

The conditions of series [1]: assay/target not stated; cited from earlier work.
Series [2] relates to popliteal lymph node hyperplasia. The conditions noted are these: popliteal lymph node hyperplasia assay; lower potency than tacrolimus; cited from earlier work.
Series [3] deals with SuHx rat model of pulmonary arterial hypertension. Put plainly: SuHx rat model of PAH with 3 weeks normoxia before treatment, Example 2. It is filed as in vivo. The protocol:
A second study was conducted as described in Example 1, except the rats injected with Sugen 5416 and placed in hypoxia for 3 weeks were returned to normoxia for three weeks, and then treated for three weeks. The rats were then implanted with s.c. osmotic pumps delivering vehicle (negative control), 0.05 mg/kg/day tacrolimus (FK506), or 0.15 mg/kg/day, 1.0 mg/kg/day, 3.0 mg/kg/day ascomycin (FK520). Rats that were not treated with Sugen 5416 and remained under normoxia served as control. There were 5 rats in the control group, and 10 rats in each treated group. At the end of the study, the rats were anaesthetized and hemodynamic data was obtained. […] The left lobes of the lungs were harvested from every rat, fixed with 10% formalin, sliced at 5 μm thickness, mounted and stained with Movat staining. […] Of particular significance in SuHx model is the rare plexiform lesions (label 4 in FIG. 3A) that are neointimal hyperplasia blocking the small vessels resulting in increased pressure. With plexiform lesions and endothelial cells overgrowth, obliteration is formed.

The test system is the same in series [4]. As to the kind of experiment: Sugen 5416 plus chronic hypoxia (SuHx) rat model of PAH, Example 1. Type of series: in vivo. The text has this:
The purpose of this study was to establish pulmonary arterial hypertension (PAH) in rats by induction with Sugen 5416, a vascular endothelial growth factor (VEGF) inhibitor, plus chronic hypoxia (SuHx) in order to evaluate and compare the efficacy of tacrolimus and ascomycin for the treatment of PAH in the SuHx rat model. The assay is designed to measure the pulmonary and systemic arterial blood pressures related to PAH in the anaesthetized SuHx rat induced with a single subcutaneous dose of Sugen 5416, combined with an induction period of chronic hypoxia.
Male Sprague Dawley rats (Charles River Laboratories) weighing between 200 and 250 g at the time of their enrollment in the study were the test subjects for this study. The animals were assigned to groups by the Study Director in order to evenly distribute the ranges of body weights throughout all treatment groups. Animals in the test groups (n=10 in each group) received one subcutaneous injection of 20 mg/kg of SU5416 on Day 0 and were returned to their respective cages. These rats were placed in cages in which the controlled airflow (ventilated cage system) was adjusted to deliver a FiO2 equivalent to 0.10 (10%) using a mixture of nitrogen and ambient air, for a period of 3 weeks. Animals in the control group (n=5) remained in cages exposed to ambient oxygen levels.
On day 21, animals in the test groups were implanted with osmotic pumps filled with the vehicle alone (negative control), or with the appropriate concentration of tacrolimus (FK506) or ascomycin (FK520) to deliver 0.05 mg/kg/day of tacrolimus, 0.05 mg/kg/day of ascomycin, or 0.15 mg/kg/day of ascomycin for a period of three weeks. At the end of the study, the rats were anaesthetized and hemodynamic data was obtained. […] Cardiac output was lower after administration of Sugen5416 and hyposia, and increased with ascomycin treatment.

In the next series the test system is rats. To be noted: 14-day, cited from earlier work.
The subject of series [5] is patients with pulmonary hypertension (WHO Group I PAH). Put plainly: Clinical study in patients with pulmonary arterial hypertension, Example 3. Type of series: in vivo, human. From the text: Patients are invited to participate in this study because they have pulmonary hypertension (PH) and are currently treated with one or multiple drugs for PH such as PDE-5 inhibitors (sildenafil, tadalafil), prostacyclins (Flolan, Remodulin, Iloprost) and/or the endothelin antagonist Ambrisentan. This study is open to male or female subjects, 18-70 years of age, with pulmonary hypertension. The Inclusion and Exclusion criteria used are below:
• 1. Age ≥18 and <70 years • 2. Diagnosis of WHO Group I Pulmonary Arterial Hypertension (PAH) (Idiopathic (I)PAH, Heritable PAH (including Hereditary Hemorrhagic Telangiectasia), Associated (A)PAH (including collagen vascular disorders, drugs+toxins exposure, congenital heart disease, and portopulmonary disease). • 3. Previous Right Heart Catheterization (RHC) that documented: • a. Mean PAP≥25 mmHg. • b. Pulmonary capillary wedge pressure<15 mmHg. • c. Pulmonary Vascular Resistance≥3.0 Wood units or 240 dynes/sec/cm5 • 5. All NYHA/WHO functional classes. • 6. Willingness of female subjects to use birth control, or be post-menopausal, or status post hysterectomy.
• 1. WHO Group II-V Pulmonary Hypertension. • 2. Current or prior experimental PAH treatments within the last 6 months (including but not limited to tyrosine kinase inhibitors, rho-kinase inhibitors, or cGMP modulators). • 3. […]

The subject of series [6] is BMP response element (BRE) from the Id1 promoter fused to luciferase (BRE-luc) in C2C12 mouse myoblastoma reporter cell line. Put plainly: BRE-luc BMP signaling reporter assay in C2C12 cells. Type of series: cell-based. The protocol: The activation of the BMP pathway was measured by luminescence. […] Thus, ascomycin activates BMPR2 signaling, and can be used for the prevention or treatment of diseases associated with decreased BMPR2 signaling, such as pulmonary arterial hypertension (PAH).

Setting [7] is: all three doses (0.15 [0.3 in b20], 1.0, 3.0 mg/kg/day) s.c. osmotic pump, three weeks.
The mark [8] stands for this setting: 0.15 mg/kg/day by osmotic pump for three weeks, vs vehicle-treated SuHx rats.
[9] abbreviates: 0.05 mg/kg/day s.c. osmotic pump, three weeks.

SMILES strings stand for the structures. Like-named read-outs stand apart in the source and are kept apart here.

Usually IC50 stands for the concentration that gives 50% inhibition.

Turning to `CC[C@@H]1/C=C(\C)C[C@H](C)C[C@H](OC)[C@H]2O[C@@](O)(C(=O)C(=O)N3CCCC[C@H]3C(=O)O[C@H](/C(C)=C/[C@@H]3CC[C@@H](O)[C@H](OC)C3)[C@H](C)[C@@H](O)CC1=O)[C@H](C)C[C@@H]2OC` [ascomycin, (3S,4R,5S,8R,9E,12S,14S,15R,16S,18R, 19R,26aS)-8-ethyl-5,19-dihydroxy-3-{(1E)-1-[(1R,3R,4R)-4-hydroxy-3-methoxycyclohexyl]prop-1-en-2-yl}-14,16-dimethoxy-4,10,12,18-tetramethyl-5.6,8,11,12,13,14,15,16,17,18,19,24,25,26,26a-hexadecahydro-3H-15.19-epoxypyrido[2,1-c][1,4]oxazacyclotricosine-1,7,20,21(4H,23H)-tetrone], the concentration for half-maximal inhibition (IC50) in series [1] is 0.55 nM. In addition, the “immunosuppressive potency compared with tacrolimus (fold lower)” value in series [2] was 3 fold. Besides, the “lung histopathology (Movat staining micrographs, FIG. 3B)” value in series [3] (1 mg/kg/day, left lung lobes, negative control showed all four grades of disease progression) was “mostly medial hypertrophy (label 1) and non-muscular vessels”. For the same molecule, the “right ventricular systolic pressure” value in series [3] (setting [7]) is given as “decreases”. Moreover, the “systolic pulmonary arterial pressure” value in series [3] (setting [7]) is on record as “decreases”. Besides, the “RVSP (FIG. 1B)” value in series [4] (setting [8]) is given as “reversed the elevation”. For the same molecule, in series [4] (setting [8]), the “pulmonary arterial pressure (FIG. 1A)” value was “reversed the elevation”. The Cardiac output result in series [4] (ascomycin treatment after Sugen5416 and hypoxia, dose not specified) was “increased”. The nephrotoxicity result was “not induced” with rats (continuous i.p. infusion at 10 mg/kg/day, rats on a normal diet); “not induced” in the series on rats (continuous i.v. infusion up to 6 mg/kg/day, rats on a low salt diet); “not induced” with rats (daily oral administration up to 50 mg/kg/day, rats on a normal diet). Further, in series [5], the “incidences of hypertension or cardiovascular events” value was “no incidences”. Besides, the tolerability entry in series [5] (all tested doses) is on record as “well tolerated”. Further, the figures for the “IDI activation (luminescence relative to the EC-20 dose of BMP4)” value in series [6] (with exogenous BMP4) and in series [6] (without exogenous BMP4) were 238% and 104%, respectively.
`C=CC[C@@H]1/C=C(\C)C[C@H](C)C[C@H](OC)[C@H]2O[C@@](O)(C(=O)C(=O)N3CCCC[C@H]3C(=O)O[C@H](/C(C)=C/[C@@H]3CC[C@@H](O)[C@H](OC)C3)[C@H](C)[C@@H](O)CC1=O)[C@H](C)C[C@@H]2OC` [tacrolimus, reference compound]: in series [3] (setting [9]), the right ventricular hypertrophy entry is given as “reduces the elevation” and the “right ventricular systolic pressure” value was “reduces the elevation”.
